Experimental data taken from the supplement of paper PMC10307832.

Legend:
Experiment in all cases: relative viability (nuclei count vs DMSO), 5 days (fraction); higher = more cells survive
Bexarotene + Linsitinib = compound: C=C(c1ccc(C(=O)O)cc1)c1cc2c(cc1C)C(C)(C)CCC2(C)C [Bexarotene] + C[C@]1(O)C[C@@H](c2nc(-c3ccc4ccc(-c5ccccc5)nc4c3)c3c(N)nccn32)C1 [Linsitinib] (partner 1 µM)
Outline: (§1)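 A single step with final 0.05% Triton X-100, 1% formaldehyde and 1 ug/ml Hoechst fixed the cells and stained nuclei 5 days after treatment. Lung cancer cell lines in 1536-well plates had been treated by pin tool the day after seeding with one drug alone or a fixed anchor-drug dose plus five library-drug doses (not always all listed) in √10 steps, and nuclei were counted on 4× images. Relative viability is the ratio of nuclei in treated wells to nuclei in vehicle wells, taken as the median of duplicate plates.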

Bexarotene + Pemetrexed = compound: C=C(c1ccc(C(=O)O)cc1)c1cc2c(cc1C)C(C)(C)CCC2(C)C [Bexarotene] + Nc1nc2[nH]cc(CCc3ccc(C(=O)N[C@@H](CCC(=O)O)C(=O)O)cc3)c2c(=O)[nH]1 [Pemetrexed] (partner 0.2 µM)
Outline: as §1

Bexarotene + Vorinostat = compound: C=C(c1ccc(C(=O)O)cc1)c1cc2c(cc1C)C(C)(C)CCC2(C)C [Bexarotene] + O=C(CCCCCCC(=O)Nc1ccccc1)NO [Vorinostat] (partner 1 µM)
Outline: as §1

Bexarotene + Olaparib = compound: C=C(c1ccc(C(=O)O)cc1)c1cc2c(cc1C)C(C)(C)CCC2(C)C [Bexarotene] + O=C(c1cc(Cc2n[nH]c(=O)c3ccccc23)ccc1F)N1CCN(C(=O)C2CC2)CC1 [Olaparib] (partner 8 µM)
Outline: as §1

| Cell Line | relative viability (Bexarotene + Linsitinib; first compound 0.08 µM) | relative viability (Bexarotene + Linsitinib; first compound 0.253 µM) | relative viability (Bexarotene + Linsitinib; first compound 0.8 µM) | relative viability (Bexarotene + Linsitinib; first compound 2.53 µM) | relative viability (Bexarotene + Linsitinib; first compound 8 µM) | relative viability (Bexarotene + Pemetrexed; first compound 0.08 µM) | relative viability (Bexarotene + Pemetrexed; first compound 0.253 µM) | relative viability (Bexarotene + Pemetrexed; first compound 0.8 µM) | relative viability (Bexarotene + Pemetrexed; first compound 2.53 µM) | relative viability (Bexarotene + Pemetrexed; first compound 8 µM) | relative viability (Bexarotene + Vorinostat; first compound 0.08 µM) | relative viability (Bexarotene + Vorinostat; first compound 0.253 µM) | relative viability (Bexarotene + Vorinostat; first compound 0.8 µM) | relative viability (Bexarotene + Vorinostat; first compound 2.53 µM) | relative viability (Bexarotene + Vorinostat; first compound 8 µM) | relative viability (Bexarotene + Olaparib; first compound 0.08 µM) | relative viability (Bexarotene + Olaparib; first compound 0.253 µM) | relative viability (Bexarotene + Olaparib; first compound 0.8 µM) | relative viability (Bexarotene + Olaparib; first compound 2.53 µM) | relative viability (Bexarotene + Olaparib; first compound 8 µM) |
| --- | --- | --- | --- | --- | --- | --- | --- | --- | --- | --- | --- | --- | --- | --- | --- | --- | --- | --- | --- | --- |
| COR-L 105 | 0.942 | 1.29 | 1.19 | 1.25 | 0.747 | 0.983 | 1.16 | 1.14 | 1.17 | 1.14 | 0.844 | 0.896 | 0.855 | 0.874 | 0.927 | 0.698 | 0.743 | 0.898 | 0.784 | 0.913 |
| EKVX | 0.971 | 1.04 | 0.922 | 0.996 | 0.937 | 0.423 | 0.54 | 0.355 | 0.43 | 0.362 | 0.69 | 0.811 | 0.709 | 0.819 | 0.542 | 0.838 | 0.993 | 0.947 | 0.946 | 0.948 |
| EMC-BAC-2 | 0.873 | 0.813 | 0.75 | 0.804 | 0.811 | 0.44 | 0.441 | 0.394 | – | 0.419 | 0.628 | 0.462 | 0.537 | – | 0.522 | 0.522 | 0.514 | 0.504 | – | 0.515 |
| EPLC-272H | 1.31 | 1.07 | 0.846 | 1.25 | 1.25 | 0.27 | 0.346 | 0.218 | 0.395 | 0.325 | 0.398 | 0.671 | 0.492 | 0.681 | 0.484 | 0.824 | 0.773 | 0.641 | 0.758 | 0.845 |
| H3255 | 0.964 | 0.995 | 0.985 | 0.991 | 0.934 | 0.585 | 0.577 | 0.551 | 0.554 | 0.558 | 0.759 | 0.913 | 0.843 | 0.787 | 0.869 | 0.603 | 0.692 | 0.659 | 0.642 | 0.654 |
| HARA | 0.971 | 0.939 | 0.709 | 0.748 | 0.648 | 0.292 | 0.31 | 0.217 | 0.248 | 0.244 | 0.655 | 0.512 | 0.584 | 0.606 | 0.51 | 0.752 | 0.838 | 0.925 | 0.731 | 0.715 |
| HCC-15 | 0.957 | 0.932 | 0.678 | 0.787 | 0.772 | 0.218 | 0.229 | 0.214 | 0.184 | 0.207 | 0.877 | 0.892 | 0.823 | 0.889 | 0.81 | 0.666 | 0.703 | 0.721 | 0.654 | 0.689 |
| HCC-44 | 0.683 | 0.727 | 0.56 | 0.683 | 0.615 | 0.694 | 0.738 | 0.658 | 0.741 | 0.65 | 1.09 | 1.05 | 0.971 | 1.04 | 1.16 | 1.07 | 1.11 | 1.05 | 1.03 | 1.05 |
| HCC-78 | 0.524 | 0.461 | 0.44 | 0.374 | 0.392 | 0.903 | 0.636 | 0.821 | 0.919 | 0.89 | 0.425 | 0.523 | 0.513 | 0.402 | 0.459 | 0.756 | 0.984 | 0.769 | 0.883 | 0.835 |
| HCC-366 | 1.1 | 0.781 | 0.774 | 0.715 | 0.635 | 0.203 | 0.14 | 0.2 | 0.141 | 0.17 | 0.361 | 0.487 | 0.329 | 0.276 | 0.328 | 0.346 | 0.494 | 0.381 | 0.388 | 0.369 |
| HCC-827 | 1.01 | 0.966 | 0.896 | 0.906 | 0.854 | 0.285 | 0.271 | 0.263 | 0.317 | 0.245 | 0.906 | 0.674 | 0.775 | 0.781 | 0.821 | 0.714 | 0.637 | 0.763 | 0.666 | 0.625 |
| HOP-62 | 1.01 | 1.17 | 1.15 | 1.02 | 0.909 | 0.332 | 0.297 | 0.336 | 0.314 | 0.361 | 0.808 | 0.831 | 0.709 | 0.555 | 0.624 | 0.452 | 0.711 | 0.56 | 0.43 | 0.371 |
| LC-2-ad | 0.88 | 0.94 | 0.742 | 0.786 | 0.881 | 0.294 | 0.279 | 0.28 | 0.247 | 0.302 | 0.82 | 0.845 | 0.744 | 0.703 | 0.665 | 0.711 | 0.693 | 0.663 | 0.541 | 0.661 |
| LCLC-97TM1 | 0.185 | 0.193 | 0.185 | 0.207 | 0.224 | 0.193 | 0.159 | 0.172 | 0.202 | 0.168 | 1.02 | 0.804 | 0.586 | 0.656 | 0.678 | 0.383 | 0.421 | 0.411 | 0.31 | 0.269 |
